Measured values reported in patent US20250161238A1, “NMDAR Antagonists Prevent Ageing and Aging-Associated Conditions and Diseases Through Increasing 20S Proteasome Activity” (priority 2022, published 2025).

What was measured:
[1] = test system: primary human fibroblast cells; assay: Nile red staining of lipid droplets in primary fibroblast cells; type: cell-based; settings: late passage
Source text: In another experiment, the amount of intracellular lipid droplets as indicator of fat metabolism were investigated in senescent cells with nile red staining in cells at the late passage. Nile red is a lipophilic stain which stain intracellular lipid droplets and proteins. Lipid droplets are highly dinamic cellular organelles involved in the storage and the metabolism of neutral lipids.

[2] = target: T1, proteasome (Homo sapiens, UniProt P28072+P28074+Q99436); assay: In-Cell Fluorogenic Proteasome Assay, HepG2; type: cell-based; set-up: endogenous in cells; host or cells: HepG2 (A9), T98G (A10), digitonin/Tween-permeabilised whole cells; settings: for trypsin, chemotrypsin and caspase-like proteasome activities: whole HepG2 cell
T1 sequence (P28074 60-263): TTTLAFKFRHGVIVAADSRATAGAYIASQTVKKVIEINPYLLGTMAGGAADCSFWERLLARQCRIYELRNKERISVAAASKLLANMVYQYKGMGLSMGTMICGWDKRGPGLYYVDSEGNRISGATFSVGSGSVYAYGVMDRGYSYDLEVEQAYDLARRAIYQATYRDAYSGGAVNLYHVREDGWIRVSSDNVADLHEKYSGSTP
T1 sequence (Q99436 44-277): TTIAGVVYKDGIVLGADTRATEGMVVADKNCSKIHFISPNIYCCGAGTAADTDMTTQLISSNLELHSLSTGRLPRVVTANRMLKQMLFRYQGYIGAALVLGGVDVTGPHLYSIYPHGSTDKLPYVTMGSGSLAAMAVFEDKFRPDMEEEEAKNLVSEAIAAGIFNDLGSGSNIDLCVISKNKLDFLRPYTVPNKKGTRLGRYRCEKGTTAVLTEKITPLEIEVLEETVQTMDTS
T1 sequence (P28072 1-239): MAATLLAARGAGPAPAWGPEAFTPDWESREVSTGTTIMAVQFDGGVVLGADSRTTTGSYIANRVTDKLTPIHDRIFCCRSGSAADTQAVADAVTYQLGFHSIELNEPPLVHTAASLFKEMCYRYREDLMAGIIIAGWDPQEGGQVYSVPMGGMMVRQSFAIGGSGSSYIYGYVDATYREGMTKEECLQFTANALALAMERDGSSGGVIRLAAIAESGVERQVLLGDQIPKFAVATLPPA
Method: (§1) For a 96-well plate format, 8×10^3 cells per well were seeded. 24 hours later medium was changed with NMDAR blocker containing medium. Two hours later 100 μl of 2× flourescence cell buffer: (1 ml 1M tris hcl ph: 7.5, 500 μl 1M KCL, 200 μl […], 200 μl 0.1M MgCL2, 50 μl % 0.2 tween 20, 75 μl digitonin 20 mg/ml in DMSO ChemCruz cat no: sc-280675, 10 μl flourescence substrates including Suc-LLVY-AMC, Z-LLE-AMC, and Ac-RLR-AMC Ac-RLR-AMC, 8.1 ml H2O). After incubation at room temperature for a 5 minutes the flourescence of each sample were measured in a flourescence spectrometer (Biotek instrument-Synergy HT).

[3] = test system: primary human fibroblast cells; assay: MTT assay of primary human fibroblast cells; type: cell-based; settings: cells set up at passage 8
Source text: (§2) First, primary human fibroblast cells were divided into two as control and NMDAR added group at the 4th passage and followed under the same condution until the 10th passage.
Cellular senescence is defined as a complete and irreversible loss of replicative capacity in primary somatic cells. (hayflick 1961). Therefore, MTT assay is used to measure cellular metabolic activity as an indicator of cell viability and proliferation in cells set up at passage 8.

[4] = test system: primary human fibroblast cells; assay: SA β-gal staining of primary human fibroblast cells; type: cell-based; settings: passage 10
Source text: as §2
Therefore cellular senescence were investigated by SA β-gal staining in cells at passage 10.

[5] = target: T1, proteasome; assay: In-Cell Fluorogenic Proteasome Assay, T98G; type: cell-based; set-up: endogenous in cells; host or cells: T98G (A10), digitonin/Tween-permeabilised whole cells; settings: whole T98G cell
Method: as §1

[6] = target: T2, 26S proteasome (Homo sapiens, UniProt P28072+P28074+Q99436); assay: Proteasome activity assay with cell lysate and fluorogenic substrates; type: biochemical; settings: cell lysate
T2 construct: endogenous in cells; host or cells: crude cell lysate
T2 sequence (P28074 60-263): T1 sequence (P28074 60-263)
T2 sequence (Q99436 44-277): T1 sequence (Q99436 44-277)
T2 sequence (P28072 1-239): T1 sequence (P28072 1-239)
Method: The activity of the 26S proteasome was measured by following steps. Aliquots of 2×10^6 cells were lysed with glass beads (Sigma) at 4° C. in lysis buffer containing 50 mM Tris-HCl (pH 7.5), 5 mM MgCl2, 1 mM DTT and 250 mM sucrose, and the protein concentration of cleared supernatants was measured by BCA protein assay reagent (Pierce). Ten micrograms of total protein was diluted with 26S proteasome assay buffer in a 96-well microtiter plate (BD Falcon), and incubated with fluorogenic substrates including Suc-LLVY-AMC, Z-LLE-AMC, and Ac-RLR-AMC Ac-RLR-AMC (Cayman-U.S.A.) were used to measure chymotrypsin, caspase-, and trypsin-like proteasome activity, respectively. Fluorescence released by AMC fluorescence was monitored on a microplate fluorometer (Biotek instrument-synergy HT) every 5 min at 37° C. for 1 h.

[7] = test system: oxidized proteins; assay: Oxidation status of proteins in mouse tissues (DNP-hydrazone western blot); type: in vivo; settings: 24 month old mice
[8] = test system: C. elegans; assay: C. elegans lipid accumulation by Nile Red staining; type: in vivo
Source text: In the next study, the effects of NMDAR blocker on lipid accumulation and central body fat and thus the fat metabolism in C. elagans was investigated. As mentioned above Nile red is a lipophilic stain which stain intracellular lipid droplets in cell. Therefore, in the presence of memantine and control C. elegans groups on the 19th day, the amount of fat in the living organisms was investigated by Nile Red staining.

Structure (SMILES)	Nile red flourescence (intracellular lipid droplets) [1]	trypsin, chemotrypsin and caspase-like proteasome activities [2]	chemotrypsin activity of proteasome ([2]; whole cell, substance alone)	proliferation (MTT assay) [3]	SA β-gal stained cells, control cells compared to treated cells [4] [fold]	trypsin, chemotrypsin and caspase-like proteasome activities [5]	trypsin, chemotrypsin and caspase-like proteasome activity [6]	oxidation of protein from lung tissue [7]	Oxidized proteins in liver, brain, kidney, skin and pancreas ([7]; memantin for 12 months)	chemotrypsin activity of proteasome in the presence of RA190 ([2]; HepG2)	lipid accumulation in control group compared to treated ([8]; 19th day)	lipid accumulation in control group compared to treated ([8]; 20th day)
CNC1(c2ccccc2Cl)CCCCC1=O (stereo not drawn) [ketamin, 2-(2-chlorophenyl)-2-(methylamino)-cyclohexanone]	more flourescence	increased	depending on the amount of the drugs	higher	2.6	increased	no effects					
CC12CC3CC(C)(C1)CC(N)(C3)C2 [memantine, 3,5-dimethyladamantan-1-amine]	more flourescence	increased		higher	1.8	increased	no effects	No significant change	reduced	very similar to the ketamin results	more than 2 fold	more than 2 fold
